Read-outs that look alike come from different tables or passages of the source.
Assays:
[1] = Determination of log P values by HPLC on a reverse phase column (C18), EEC-Directive 79/831 Annex V.A8 (Methods A, B, C); assay type: physicochemical; settings: for chromatographic logP: reverse phase C18 HPLC column
How it was run: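 LogP was determined by C18 reverse-phase HPLC/UPLC with acetonitrile/water eluents containing formic acid. Method A used a 10–95% acetonitrile gradient over 4.25 min at 55 °C and 2.0 mL/min. Method B used 5–95% over 1.70 min at 55 °C and 2.0 mL/min, and Method C used 10–95% over 3.25 min at 40 °C and 0.8 mL/min, with MS detection.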

Pyrenophora teres = experiment: Example D: Pyrenophora test (barley) / preventive; assay type: in vivo; settings: in vivo
Pyricularia oryzae = assay type: in vivo; settings: in vivo
[2] = system: DON/Acetyl-DON production by Fusarium graminearum; experiment: microbe, parasite or virus in culture; assay type: cell-based; settings: at 50 μM
Leptosphaeria nodorum = experiment: Example C: Leptosphaeria test (wheat) / preventive; assay type: in vivo; settings: in vivo
Sphaerotheca fuliginea = experiment: Example A: Sphaerotheca test (cucumber) / preventive; assay type: in vivo; settings: in vivo
Fusarium graminearum [3] = experiment: microbe, parasite or virus in culture; assay type: cell-based; settings: for Growth inhibition of Fusarium graminearum in %: at 50 μM
Puccinia recondita = experiment: Example E: Puccinia test (wheat) / preventive; assay type: in vivo; settings: in vivo
Uromyces appendiculatus = experiment: Example B: Uromyces test (beans) / preventive; assay type: in vivo; settings: in vivo
Fusarium graminearum [4] = assay type: in vivo; settings: in vivo
Septoria tritici = experiment: Example J: Septoria tritici test (wheat) / preventive; assay type: in vivo; settings: in vivo
[5] = system: Fusarium nivale (var. majus); experiment: Example K: Fusarium nivale (var. majus) test (wheat) / preventive; assay type: in vivo; settings: 500 ppm of active ingredient, preventive spray, evaluated 5 days after inoculation
Procedure: After the spray coating has been dried, the plants are slightly injured by using a sandblast and afterwards they are sprayed with a conidia suspension of Fusarium nivale (var. majus).
The test is evaluated 5 days after the inoculation.

[6] = Method B (HPLC, reverse phase C18)
[7] = Method C (HPLC, reverse phase C18)

Compound | LogP [1, 6] | efficacy (Pyrenophora teres) | efficacy (Pyricularia oryzae) | Inhibition of DON/AcDON in % [2] | efficacy (Leptosphaeria nodorum) | efficacy (Sphaerotheca fuliginea) | Growth inhibition of Fusarium graminearum in % (Fusarium graminearum [3]) | efficacy (Puccinia recondita) | efficacy (Uromyces appendiculatus) | efficacy (Fusarium graminearum [4]) | efficacy (Septoria tritici) | efficacy [5] | chromatographic logP ([1]; Method C (HPLC, reverse phase C18), read-out: LogP) | chromatographic logP ([1]; pH 2.7, values in the synthesis examples, HPLC, reverse phase C18, read-out: log P (pH 2.7)) | inhibition at 50 µM ([2]; Fusarium graminearum, read-out: Inhibition of DON/AcDON in %) | inhibition at 50 µM (Fusarium graminearum [3]; Fusarium graminearum, read-out: Growth inhibition of Fusarium graminearum in %) | LogP [1, 7]
CC(=O)Nc1cc(-c2c(-c3ccc(F)cc3)nn3c2OCC3)ccn1 [Example 1] | 1.19 | 95% | 70% | 98% | 88% | 75% | 90% | – | – | – | – | – | – | – | – | – | –
O=C(Nc1cc(-c2c(-c3ccccc3)nn3c2OCCC3)ccn1)C1CC1 [Example 7] | 1.25 | 95% | 94% | – | 90% | 95% | – | 100% | 94% | – | – | – | – | – | – | – | –
C[C@H](O)C(=O)Nc1cc(-c2c(-c3ccccc3)nn3c2OCCC3)ccn1 [Example 12] | 1.2 | 100% | 100% | – | 80% | 83% | – | 100% | 94% | 86% | 100% | 93% | – | – | – | – | –
O=C(CC1CC1)Nc1cc(-c2c(-c3ccccc3)nn3c2OCCC3)ccn1 [Example 13] | 1.54 | 95% | 100% | – | – | 70% | – | 95% | 92% | 71% | 100% | – | – | – | – | – | –
O=C(Nc1cc(-c2c(-c3ccccc3)nn3c2OCCC3)ccn1)C1CCOCC1 [Example 14] | 1.22 | 95% | 94% | 100% | 95% | 100% | 95% | 100% | 94% | 86% | 100% | 100% | – | – | – | – | –
CC(C(=O)Nc1cc(-c2c(-c3ccccc3)nn3c2OCCC3)ccn1)c1ccc(F)cc1 (stereo not drawn) [Example 18] | 2.27 | 95% | 94% | – | 90% | 93% | – | 95% | 94% | – | – | – | – | – | – | – | –
CC(C)(C)CC(=O)Nc1cc(-c2c(-c3ccccc3)nn3c2OCCC3)ccn1 [Example 20] | 1.88 | 95% | 94% | – | 95% | 100% | – | 100% | 97% | – | – | – | – | – | – | – | –
O=C(Nc1cc(-c2c(-c3ccccc3)nn3c2OCCC3)ccn1)C1(Cl)CC1 [Example 21] | 2.62 | 100% | 89% | – | 70% | 93% | – | 89% | – | – | – | – | – | – | – | – | –
CCC(C)C(=O)Nc1cc(-c2c(-c3ccc(F)cc3)nn3c2OCCC3)ccn1 (stereo not drawn) [Example 24] | 1.82 | 95% | 94% | 94% | 95% | 98% | 91% | 100% | 94% | 90% | 100% | 100% | – | – | – | – | –
O=C(CC1CC1)Nc1cc(-c2c(-c3ccc(F)cc3)nn3c2OCCC3)ccn1 [Example 27] | 1.69 | 95% | 100% | – | 90% | 95% | – | 100% | – | 86% | 100% | – | – | – | – | – | –
CSCC(=O)Nc1cc(-c2c(-c3ccc(F)cc3)nn3c2OCCC3)ccn1 [Example 30] | 1.72 | 95% | 94% | – | 70% | 98% | – | 100% | – | – | – | – | – | – | – | – | –
O=C(CC(F)(F)F)Nc1cc(-c2c(-c3ccc(F)cc3)nn3c2OCCC3)ccn1 [Example 31] | 2.13 | 95% | 94% | – | – | 88% | – | 100% | 92% | 86% | 100% | 100% | – | – | – | – | –
CC(C)(C)CC(=O)Nc1cc(-c2c(-c3ccc(F)cc3)nn3c2OCCC3)ccn1 [Example 34] | 2.04 | 100% | 94% | – | 90% | 95% | – | 100% | 94% | 86% | 88% | 75% | – | – | – | – | –
O=C(Nc1cc(-c2c(-c3ccc(F)cc3F)nn3c2OCCC3)ccn1)C1CC1 [Example 36] | 1.42 | 95% | 94% | – | 90% | 100% | – | 100% | 92% | 100% | 88% | 88% | – | – | – | – | –
CCC(C)C(=O)Nc1cc(-c2c(-c3ccc(F)cc3F)nn3c2OCCC3)ccn1 (stereo not drawn) [Example 39] | 1.85 | 95% | 94% | 99% | – | 98% | 89% | 100% | 94% | – | – | – | – | – | – | – | –
CC(C)CC(=O)Nc1cc(-c2c(-c3ccc(F)cc3F)nn3c2OCCC3)ccn1 [Example 40] | 1.88 | 95% | 94% | 99% | – | 98% | 85% | 100% | 94% | – | – | – | – | – | – | – | –
CSCC(=O)Nc1cc(-c2c(-c3ccc(F)cc3F)nn3c2OCCC3)ccn1 [Example 45] | 1.75 | 90% | 94% | 100% | – | 95% | 78% | 90% | 92% | – | – | – | – | – | – | – | –
O=C(CC(F)(F)F)Nc1cc(-c2c(-c3ccc(F)cc3F)nn3c2OCCC3)ccn1 [Example 46] | 2.13 | 90% | 94% | – | – | – | – | 100% | 94% | 86% | 88% | – | – | – | – | – | –
CC(C)(C)CC(=O)Nc1cc(-c2c(-c3ccc(F)cc3F)nn3c2OCCC3)ccn1 [Example 49] | 2.1 | 95% | 94% | – | 90% | 93% | – | 95% | 94% | – | – | – | – | – | – | – | –
CC(=O)Nc1cc(-c2c(-c3ccccc3)nn3cccnc23)ccn1 [Example 51, N-[4-(2-phenylpyrazolo[1,5-a]pyrimidin-3-yl)pyridin-2-yl]acetamide] | – | – | – | – | – | – | – | – | – | – | – | – | 1.41 | 1.41 | 100% | 90% | –
O=C(Nc1cc(-c2c(-c3ccc(F)cc3)nn3c2OCCC3)ccn1)C(=O)N1CCCCC1 [Example 70] | 2.23 | – | – | 90% | – | – | 76% | – | – | – | – | – | – | – | – | – | –
CCC(=O)Nc1cc(-c2c(-c3ccc(F)cc3)nn3c2NCCC3)ccn1 [Example 80] | – | 100% | 90% | 100% | – | 93% | – | – | 78% | – | – | – | – | – | – | – | 1.35
O=C(C1CC1)N(C(=O)C1CC1)c1cc(-c2c(-c3ccc(F)cc3)nn3cccnc23)ccn1 [Example 84] | – | 90% | 90% | – | – | 88% | – | – | – | 83% | 88% | 100% | – | – | – | – | 2.94
O=C(Nc1cc(-c2c(-c3ccc(F)cc3)nn3cccnc23)ccn1)C1CC1 [Example 88] | – | 95% | 90% | 70% | – | 93% | 55% | – | – | – | – | – | – | – | – | – | 1.75
CC(C)C(=O)N(C(=O)C(C)C)c1cc(-c2c(-c3ccccc3)nn3c2NCCC3)ccn1 [Example 92] | – | – | – | 99% | – | 100% | – | 78% | 78% | – | – | – | – | – | – | – | 3.08
CC(C)C(=O)Nc1cc(-c2c(-c3ccsc3)nn3c2OC[Si](C)(C)C3)ccn1 [Example 101] | – | 100% | 80% | 100% | 80% | – | 93% | – | 75% | – | – | – | – | – | – | – | 2.11

— patent US9023844B2, “Heterocyclylpyri (mi) dinylpyrazole as fungicidals” (Bayer Intellectual Property GmbH, priority 2011, dated 2015)
